Source: US9981938B2, “Quaternary ammonium alkyl esters as stable prodrugs” (ALLERGAN, INC., priority 2014, dated 2018)

Assay: Stability of compounds in aqueous solution
Format: physicochemical
Details: compound dissolved in aqueous solution, in %; for stability, 25° C./ 7 days: maintained at 25° C. for 7 days; for stability, 25° C./ 14 days: maintained at 25° C. for 14 days; for stability, 40° C./ 7 days: maintained at 40° C. for 7 days
Description: In some embodiments the stability of the compound is such that, when stored in an aqueous solution at 25° C. for 7 days or 14 days, at least about 70%, at least about 80%, at least about 90%, at least about 95%, at least about 97%, at least about 99% of the original compound, and up to about 100% of the original compound remains in the solution. In some embodiments, the stability of the compound is such that at least about 70%, at least about 80%, at least about 90%, at least about 95%, at least about 97%, at least about 99% of the original compound, and up to about 100% of original compound remains after 7 days of storage in an aqueous solution at 40° C.
The following Table 1 depicts various embodiments indicating the stability of compounds depicted by their respective structures in the table. The compounds were dissolved in an aqueous solution, and maintained at the indicated temperatures, for 7 to 14 days, as indicated.

| Structure (SMILES) | stability, 25° C./ 7 days | stability, 25° C./ 14 days | stability, 40° C./ 7 days |
| --- | --- | --- | --- |
| CN(C)Cc1ccc(OC(=O)c2ccc(CCC[C@@H]3[C@@H](CCc4cc(Cl)cc(Cl)c4)[C@H](O)C[C@H]3Cl)s2)cc1 [Compound 2, 5-(3-{(1R, 2R, 3R, 5R)-5-Chloro-2-[2-(3,5-dichlorophenyl)ethyl]-3-hydroxycyclopentyl}-propyl)thiophene-2-carboxylic acid 4-dimethylaminomethyl phenyl ester] | 96.4 | 95.2 | 78.0 |
| CN(C)c1ccc(OC(=O)c2ccc(CCC[C@@H]3[C@@H](CCc4cc(Cl)cc(Cl)c4)[C@H](O)C[C@H]3Cl)s2)cc1 [Compound 4, 5-(3-{(1R, 2R, 3R, 5R)-5-Chloro-2-[2-(3,5-dichlorophenyl)ethyl]-3-hydroxycyclopentyl}-propyl)thiophene-2-carboxylic acid 4-dimethylaminophenyl ester] | 98.7 | 100.2 | 96.0 |
| CC[N+](C)(CC)CCCOC(=O)c1ccc(CCC[C@@H]2[C@@H](CCc3cc(Cl)cc(Cl)c3)[C@H](O)C[C@H]2Cl)s1 [Compound 9, {3-[5-(3-{(1R, 2R, 3R, 5R)-5-Chloro-2-[2-(3,5-dichlorophenyl)ethyl]-3-hydroxycyclopentyl}-propyl)thiophene-2-carbonyloxy]propyl}diethyl methyl ammonium iodide] | 100.5 | 101.1 | 101.8 |
| O=C(Oc1ccc(CN2CCOCC2)cc1)c1ccc(CCC[C@@H]2[C@@H](CCc3cc(Cl)cc(Cl)c3)[C@H](O)C[C@H]2Cl)s1 [Compound 3, 5-(3-{(1R, 2R, 3R, 5R)-5-Chloro-2-[2-(3,5-dichlorophenyl)ethyl]-3-hydroxycyclopentyl}-propyl)thiophene-2-carboxylic acid 4-morpholin-4-ylmethyl phenyl ester] | 97.3 | 97.3 | 91.7 |
| O=C(OCCCN1CCOCC1)c1ccc(CCC[C@@H]2[C@@H](CCc3cc(Cl)cc(Cl)c3)[C@H](O)C[C@H]2Cl)s1 [Compound 6, 5-(3-{(1R, 2R, 3R, 5R)-5-Chloro-2-[2-(3,5-dichlorophenyl)ethyl]-3-hydroxycyclopentyl}propyl)thiophene-2-carboxylic acid, 3-morpholin-4-yl propyl ester] | 103.0 | 102.9 | 98.0 |
| CCN(CC)CCOC(=O)c1ccc(CCC[C@@H]2[C@@H](CCc3cc(Cl)cc(Cl)c3)[C@H](O)C[C@H]2Cl)s1 [Compound 8, 5-(3-{(1R, 2R, 3R, 5R)-5-Chloro-2-[2-(3,5-dichlorophenyl)ethyl]-3-hydroxycyclopentyl}-propyl)thiophene-2-carboxylic acid, 2-diethylaminoethyl ester] | 95.8 | 84.6 | 79.1 |
| CC(CCN1CCOCC1)OC(=O)c1ccc(CCC[C@@H]2[C@@H](CCc3cc(Cl)cc(Cl)c3)[C@H](O)C[C@H]2Cl)s1 (stereo partly drawn) [Compound 5, 5-(3-{(1R, 2R, 3R, 5R)-5-Chloro-2-[2-(3,5-dichlorophenyl)ethyl]-3-hydroxycyclopentyl}propyl)thiophene-2-carboxylic acid, 1-methyl-3-morpholin-4-yl propyl ester] | 98.5 | 95.4 | 89.3 |
| CC(CN(C)C)OC(=O)c1ccc(CCC[C@@H]2[C@@H](CCc3cc(Cl)cc(Cl)c3)[C@H](O)C[C@H]2Cl)s1 (stereo partly drawn) [Compound 7, 5-(3-{(1R, 2R, 3R, 5R)-5-Chloro-2-[2-(3,5-dichlorophenyl)ethyl]-3-hydroxycyclopentyl}propyl)thiophene-2-carboxylic acid, 2-dimethylamino-1-methyl ethyl ester] | 94.3 | 78.5 | 70.3 |
